# According to patent US20240180900A1, “COMPOUNDS AND METHODS FOR THE TARGETED DEGRADATION OF ANDROGEN RECEPTOR” (Arvinas Operations, Inc., priority 2022, published 2024):
# Assay: Phase 1/2 study in mCRPC participants: safety
# [1] = all-causality TEAEs, Phase 1, N = 34
# [2] = all-causality TEAEs, Phase 2, N = 13
smiles,measurement,setting,value
"COc1cc(O[C@H]2C(C)(C)[C@H](NC(=O)c3ccc(N4CCC(CN5CCN(c6ccc(C(=O)N[C@H]7CCC(=O)NC7=O)c(F)c6)CC5)CC4)cc3)C2(C)C)ccc1C#N [Compound A, 4-(4-((1-(4-(((1R,3R)-3-(4-cyano-3-methoxyphenoxy)-2,2,4,4-tetramethylcyclobutyl)carbamoyl)phenyl)piperidin-4-yl)methyl)piperazin-1-yl)-N—((S)-2,6-dioxopiperidin-3-yl)-2-fluorobenzamide]",Fatigue: Grade 5,[1],0 participants
same,Gastrointestinal disorders: Any Grade,[1],15 participants
same,Gastrointestinal disorders: Grade 3,[1],2 participants
same,Gastrointestinal disorders: Grade 4,[1],0 participants
same,Gastrointestinal disorders: Grade 5,[1],0 participants
same,General disorders and administration site conditions: Any Grade,[1],16 participants
same,General disorders and administration site conditions: Grade 3,[1],1 participants
same,General disorders and administration site conditions: Grade 4,[1],0 participants
same,General disorders and administration site conditions: Grade 5,[1],0 participants
same,Hyponatraemia: Any Grade,[1],4 participants
same,Hyponatraemia: Grade 3,[1],0 participants
same,Hyponatraemia: Grade 4,[1],0 participants
same,Hyponatraemia: Grade 5,[1],0 participants
same,Hypophosphataemia: Any Grade,[1],4 participants
same,Hypophosphataemia: Grade 3,[1],0 participants
same,Hypophosphataemia: Grade 4,[1],0 participants
same,Hypophosphataemia: Grade 5,[1],0 participants
same,Insomnia: Any Grade,[1],5 participants
same,Insomnia: Grade 3,[1],0 participants
same,Insomnia: Grade 4,[1],0 participants
same,Insomnia: Grade 5,[1],0 participants
same,Investigations: Any Grade,[1],19 participants
same,Investigations: Grade 3,[1],1 participants
same,Investigations: Grade 4,[1],1 participants
same,Investigations: Grade 5,[1],0 participants
same,Lymphocyte count decreased: Any Grade,[1],4 participants
same,Lymphocyte count decreased: Grade 3,[1],0 participants
same,Lymphocyte count decreased: Grade 4,[1],1 participants
same,Lymphocyte count decreased: Grade 5,[1],0 participants
same,Metabolism and nutrition disorders: Any Grade,[1],15 participants
same,Metabolism and nutrition disorders: Grade 3,[1],1 participants
same,Metabolism and nutrition disorders: Grade 4,[1],0 participants
same,Metabolism and nutrition disorders: Grade 5,[1],0 participants
same,Nausea: Any Grade,[1],7 participants
same,Nausea: Grade 3,[1],0 participants
same,Nausea: Grade 4,[1],0 participants
same,Nausea: Grade 5,[1],0 participants
same,Neutrophil count decreased: Any Grade,[1],4 participants
same,Neutrophil count decreased: Grade 3,[1],0 participants
same,Neutrophil count decreased: Grade 4,[1],0 participants
same,Neutrophil count decreased: Grade 5,[1],0 participants
same,Participants with any TEAEs: Any Grade,[1],33 participants
same,Participants with any TEAEs: Grade 3,[1],10 participants
same,Participants with any TEAEs: Grade 4,[1],2 participants
same,Participants with any TEAEs: Grade 5,[1],1 (2.9) participants
same,Psychiatric disorders: Any Grade,[1],7 participants
same,Psychiatric disorders: Grade 3,[1],0 participants
same,Psychiatric disorders: Grade 4,[1],0 participants
same,Psychiatric disorders: Grade 5,[1],0 participants
same,Rash maculo-papular: Any Grade,[1],4 participants
same,Rash maculo-papular: Grade 3,[1],0 participants
same,Rash maculo-papular: Grade 4,[1],0 participants
same,Rash maculo-papular: Grade 5,[1],0 participants
same,"Respiratory, thoracic and mediastinal disorders: Any Grade",[1],6 participants
same,"Respiratory, thoracic and mediastinal disorders: Grade 3",[1],2 participants
same,"Respiratory, thoracic and mediastinal disorders: Grade 4",[1],0 participants
same,"Respiratory, thoracic and mediastinal disorders: Grade 5",[1],0 participants
same,Skin and subcutaneous tissue disorders: Any Grade,[1],10 participants
same,Skin and subcutaneous tissue disorders: Grade 3,[1],0 participants
same,Skin and subcutaneous tissue disorders: Grade 4,[1],0 participants
same,Skin and subcutaneous tissue disorders: Grade 5,[1],0 participants
same,Abdominal pain: Any Grade,[2],2 participants
same,Abdominal pain: Grade 3,[2],1 participants
same,Abdominal pain: Grade 4,[2],0 participants
same,Abdominal pain: Grade 5,[2],0 participants
same,Alopecia: Any Grade,[2],2 participants
same,Alopecia: Grade 3,[2],0 participants
same,Alopecia: Grade 4,[2],0 participants
same,Alopecia: Grade 5,[2],0 participants
same,Anaemia: Any Grade,[2],4 participants
same,Anaemia: Grade 3,[2],0 participants
same,Anaemia: Grade 4,[2],0 participants
same,Anaemia: Grade 5,[2],0 participants
same,Blood alkaline phosphatase increased: Any Grade,[2],3 participants
same,Blood alkaline phosphatase increased: Grade 3,[2],0 participants
same,Blood alkaline phosphatase increased: Grade 4,[2],0 participants
same,Blood alkaline phosphatase increased: Grade 5,[2],0 participants
same,Blood and lymphatic system disorders: Any Grade,[2],4 participants
same,Blood and lymphatic system disorders: Grade 3,[2],0 participants
same,Blood and lymphatic system disorders: Grade 4,[2],0 participants
same,Blood and lymphatic system disorders: Grade 5,[2],0 participants
same,Diarrhoea: Any Grade,[2],3 participants
same,Diarrhoea: Grade 3,[2],0 participants
same,Diarrhoea: Grade 4,[2],0 participants
same,Diarrhoea: Grade 5,[2],0 participants
same,Dysgeusia: Any Grade,[2],3 participants
same,Dysgeusia: Grade 3,[2],0 participants
same,Dysgeusia: Grade 4,[2],0 participants
same,Dysgeusia: Grade 5,[2],0 participants
same,Fatigue: Any Grade,[2],2 participants
same,Fatigue: Grade 3,[2],0 participants
same,Fatigue: Grade 4,[2],0 participants
same,Fatigue: Grade 5,[2],0 participants
same,Gastrointestinal disorders: Any Grade,[2],7 participants
same,Gastrointestinal disorders: Grade 3,[2],1 participants
same,Gastrointestinal disorders: Grade 4,[2],0 participants
same,Gastrointestinal disorders: Grade 5,[2],0 participants
same,General disorders and administration site conditions: Any Grade,[2],2 participants
same,General disorders and administration site conditions: Grade 3,[2],0 participants
same,General disorders and administration site conditions: Grade 4,[2],0 participants
same,General disorders and administration site conditions: Grade 5,[2],0 participants
same,Haematuria: Any Grade,[2],3 participants
same,Haematuria: Grade 3,[2],0 participants
same,Haematuria: Grade 4,[2],0 participants
same,Haematuria: Grade 5,[2],0 participants
same,Hypertension: Any Grade,[2],2 participants
same,Hypertension: Grade 3,[2],1 participants
same,Hypertension: Grade 4,[2],0 participants
same,Hypertension: Grade 5,[2],0 participants
same,Investigations: Any Grade,[2],5 participants
same,Investigations: Grade 3,[2],0 participants
same,Investigations: Grade 4,[2],0 participants
same,Investigations: Grade 5,[2],0 participants
same,Nausea: Any Grade,[2],2 participants
same,Nausea: Grade 3,[2],0 participants
same,Nausea: Grade 4,[2],0 participants
same,Nausea: Grade 5,[2],0 participants
same,Nervous system disorders: Any Grade,[2],3 participants
same,Nervous system disorders: Grade 3,[2],0 participants
same,Nervous system disorders: Grade 4,[2],0 participants
same,Nervous system disorders: Grade 5,[2],0 participants
same,Participants with any TEAEs: Any Grade,[2],11 participants
same,Participants with any TEAEs: Grade 3,[2],2 participants
same,Participants with any TEAEs: Grade 4,[2],0 participants
same,Participants with any TEAEs: Grade 5,[2],0 participants
same,Proteinuria: Any Grade,[2],2 participants
same,Proteinuria: Grade 3,[2],0 participants
same,Proteinuria: Grade 4,[2],0 participants
same,Proteinuria: Grade 5,[2],0 participants
same,Renal and urinary disorders: Any Grade,[2],6 participants
same,Renal and urinary disorders: Grade 3,[2],0 participants
same,Renal and urinary disorders: Grade 4,[2],0 participants
same,Renal and urinary disorders: Grade 5,[2],0 participants
same,Skin and subcutaneous tissue disorders: Any Grade,[2],2 participants
same,Skin and subcutaneous tissue disorders: Grade 3,[2],0 participants
same,Skin and subcutaneous tissue disorders: Grade 4,[2],0 participants
same,Skin and subcutaneous tissue disorders: Grade 5,[2],0 participants
same,Vascular disorders: Any Grade,[2],2 participants
same,Vascular disorders: Grade 3,[2],1 participants
same,Vascular disorders: Grade 4,[2],0 participants
same,Vascular disorders: Grade 5,[2],0 participants
same,Vomiting: Any Grade,[2],2 participants
same,Vomiting: Grade 3,[2],0 participants
same,Vomiting: Grade 4,[2],0 participants
same,Vomiting: Grade 5,[2],0 participants
same,deaths considered related to Compound A,study start until data cut-off,No deaths were considered related to Compound A
same,deaths reported,study start until data cut-off,Five
